Experimental data: US8962626B2, “Thienopyridazine compounds, their preparations, pharmaceutical compositions and uses” (Zhejiang Medicine Co., Ltd. Xinchang Pharmaceutical Factory, priority 2008, dated 2015)
Read-outs that look alike come from different tables or passages of the source.

Legend:
[1] = system: Human poorly differentiated gastric adenocarcinoma (BGC-823); assay: Cytotoxicity in vitro, SRB and MTT methods, 72 h; assay type: cell-based; conditions: BGC-823 cells, read-out: Anti-cancer Activity IC50 In vitro, BGC-823
Description: (§1) Some of the above compounds are tested in vitro and in vivo for their antitumor activities. Among these tests, the cytotoxicity is tested in vitro using SRB and MTT methods for 72 h.

Mouse lung cancer (3LL) = assay: Cytotoxicity in vitro, SRB and MTT methods, 72 h; assay type: cell-based; conditions: 3LL cells, read-out: Anti-cancer Activity IC50 In vitro, 3LL
Description: as §1

[2] = system: Human ovarian cancer (A2780); assay: Cytotoxicity in vitro, SRB and MTT methods, 72 h; assay type: cell-based; conditions: A2780 cells, read-out: Anti-cancer Activity IC50 In vitro, A2780
Description: as §1

Human colon cancer HT-29 = assay: Cytotoxicity in vitro, SRB and MTT methods, 72 h; assay type: cell-based; conditions: HT-29 cells, read-out: Anti-cancer Activity IC50 In vitro, HT-29
Description: as §1

[3] = system: transplanted tumor of human colon cancer HT-99; assay: Efficacy on transplanted tumor of human colon cancer HT-99 on nude mice; assay type: in vivo; conditions: compounds 60 mg/kg ip d0,1, GCT 20, ADR 4 mg/kg ip, combinations GCT or CPT-11 20 / ADR 4 ip + compound 25 mg/kg iv; for RTV (relative tumor volume) X ± SD / T/C: 17th day; for TV dn: dn = 17th day after administration
mouse S180 sarcoma = assay: Growth inhibition effect on mouse S180 sarcoma; assay type: in vivo; conditions: mouse S180, 50 mg/kg ip; for Rate of inhibition: N = 7; for Body Weight without Tumor / Ending Body Weight / Tumor Weight / Starting Body Weight: N = 7, X ± SD; for Starting Body Weight: baseline

`CNC(=O)c1nnc(CC2CCSC2)c2cc(-c3ccc(Cl)cc3)sc12` (stereo not drawn) [XXXIV, 2-(4-chlorophenyl)-4-(3-tetrahydrothiophenemethyl)-thieno[2,3-d]pyridazinyl-7-N-methyl formamide] gave an IC50 ([1]; Homo sapiens, BGC-823, 72 h) of 74.5 µM, an IC50 (Mouse lung cancer (3LL); Mus musculus, 3LL) of 50.6 µM and an IC50 ([2]; Homo sapiens, A2780, 72 h) of over 100 µM. It also gave an IC50 (Human colon cancer HT-29; Homo sapiens, HT-29, 72 h) of over 100 µM.

`CNC(=O)c1nnc(CC2CCCNC2)c2cc(-c3ccc(Cl)cc3)sc12` (stereo not drawn) [XIV, 2-(4-chlorophenyl)-4-(3-piperidinemethyl)-thieno[2,3-d]pyridazinyl-7-N-methyl formamide] was tested, and the IC50 ([1]; Homo sapiens, BGC-823, 72 h) was 30.5 µM, the IC50 (Mouse lung cancer (3LL); Mus musculus, 3LL) was 8.59 µM and the IC50 ([2]; Homo sapiens, A2780, 72 h) was 6.01 µM. For the same molecule, the IC50 (Human colon cancer HT-29; Homo sapiens, HT-29, 72 h) was 16.8 µM.

With `COc1cccc2c1C(=O)c1c(O)c3c(c(O)c1C2=O)C[C@@](O)(C(=O)CO)C[C@@H]3O[C@H]1C[C@H](N)[C@H](O)[C@H](C)O1` [ADR, Adriamycin] the “RTV (relative tumor volume) X ± SD” value [3] was 4.38 ± 1.38, the T/C [3] was 64% and the TV dn [3] was 667 ± 67 mm^3.

`NC(=O)c1nnc(CC2CCSC2)c2cc(-c3ccc(F)cc3)sc12` (stereo not drawn) [XXVI, 2-(4-fluorophenyl)-4-(3-tetrahydrothiophenemethyl)-thieno[2,3-d]pyridazinyl-7-formamide] was tested, and the IC50 ([1]; Homo sapiens, BGC-823, 72 h) was 24.6 µM, the IC50 (Mouse lung cancer (3LL); Mus musculus, 3LL) was over 100 µM and the IC50 ([2]; Homo sapiens, A2780, 72 h) was over 100 µM. The IC50 (Human colon cancer HT-29; Homo sapiens, HT-29, 72 h) was over 100 µM.

Work on `NC(=O)c1nnc(CC2CCCNC2)c2cc(-c3ccc(Cl)cc3)sc12` (stereo not drawn) [XIII, 2-(4-chlorophenyl)-4-(R-3-piperidinemethyl)-thieno[2,3-d]pyridazinyl-7-formamide] yielded an IC50 ([1]; Homo sapiens, BGC-823, 72 h) of 2.62 µM, an IC50 (Mouse lung cancer (3LL)) of 1.24 µM and an IC50 [2] of 1.18 µM. The IC50 (Human colon cancer HT-29) was 0.73 µM.

For `NC(=O)c1nnc(CC2CCNC2)c2cc(-c3ccc(Cl)cc3)sc12` (stereo not drawn) [XXI, 2-(4-chlorophenyl)-4-(3-pyrrolidinemethyl)-thieno[2,3-d]pyridazinyl-7-formamide], the IC50 (Human colon cancer HT-29; Homo sapiens, HT-29, 72 h) was 8.68 µM.

`NC(=O)c1nnc(CC2CCNCC2)c2cc(-c3ccc(Cl)cc3)sc12` [XI, 2-(4-chlorophenyl)-4-(4-piperidinemethyl)-thieno[2,3-d]pyridazinyl-7-formamide] showed an IC50 ([1]; Homo sapiens, BGC-823, 72 h) of 9.24 µM, an IC50 (Mouse lung cancer (3LL); Mus musculus, 3LL) of 8.43 µM and an IC50 ([2]; Homo sapiens, A2780, 72 h) of 11.8 µM. The IC50 (Human colon cancer HT-29; Homo sapiens, HT-29, 72 h) was 10.7 µM.

Molecule “2-(4-bromophenyl)-4-(3-α-thiopyranmethyl)-thieno[2,3-d]pyridazinyl-7-formamide [XXXXVI]” has an IC50 [1] of 11.1 µM, an IC50 (Mouse lung cancer (3LL)) of over 100 µM and an IC50 [2] of 30.3 µM. It also gave an IC50 (Human colon cancer HT-29) of over 100 µM.

Work on `NC(=O)c1nnc(Cc2cccnc2)c2cc(-c3ccc(F)cc3)sc12` [XXXVIII, 2-(4-fluorophenyl)-4-(3-pyridinemethyl)-thieno[2,3-d]pyridazinyl-7-formamide] yielded an IC50 ([1]; Homo sapiens, BGC-823, 72 h) of 8.17 µM, an IC50 (Mouse lung cancer (3LL); Mus musculus, 3LL) of 3.13 µM and an IC50 ([2]; Homo sapiens, A2780, 72 h) of 3.13 µM. For the same molecule, the IC50 (Human colon cancer HT-29; Homo sapiens, HT-29, 72 h) was 1.33 µM.

With `Nc1ccn([C@@H]2O[C@H](CO)[C@@H](O)C2(F)F)c(=O)n1` [GCT, Gemcitabine] the “RTV (relative tumor volume) X ± SD” value [3] was 1.64 ± 0.44, the T/C [3] was 37% and the TV dn [3] was 463 ± 74 mm^3.

In the case of `NC(=O)c1nnc(CC2CCNC2)c2cc(-c3ccc(F)cc3)sc12` (stereo not drawn) [Compound XX, 2-(4-fluorophenyl)-4-(3-pyrrolidinemethyl)-thieno[2,3-d]pyridazinyl-7-formamide], the Rate of inhibition (mouse S180 sarcoma) is reported as 37.23%, the “Body Weight without Tumor” value (mouse S180 sarcoma) is reported as 19.33 ± 1.60 g and the “Ending Body Weight” value (mouse S180 sarcoma) is reported as 21.19 ± 1.40 g. For the same molecule, the “Tumor Weight” value (mouse S180 sarcoma) was 1.86 ± 0.26 g and the “Starting Body Weight” value (mouse S180 sarcoma) was 19.50 ± 0.89 g.

With `NC(=O)c1nnc(CC2CCOC2)c2cc(-c3ccc(Cl)cc3)sc12` (stereo not drawn) [XXIV, 2-(4-chlorophenyl)-4-(3-tetrahydrofuranmethyl)-thieno[2,3-d]pyridazinyl-7-formamide] the Rate of inhibition (mouse S180 sarcoma) was 45.45%, the “Body Weight without Tumor” value (mouse S180 sarcoma) was 21.56 ± 1.48 g and the “Ending Body Weight” value (mouse S180 sarcoma) was 23.18 ± 1.66 g. The “Tumor Weight” value (mouse S180 sarcoma) was 1.62 ± 0.26 g and the “Starting Body Weight” value (mouse S180 sarcoma) was 19.39 ± 0.60 g.

`CN(C)C(=O)c1nnc(Cc2ccoc2)c2cc(-c3ccc(Cl)cc3)sc12` [XXXXXXX, 2-(4-chlorophenyl)-4-(3-furanmethyl)-thieno[2,3-d]pyridazinyl-7-N,N-dimethyl formamide] was tested, and the IC50 ([1]; Homo sapiens, BGC-823, 72 h) was 5.45 µM, the IC50 (Mouse lung cancer (3LL); Mus musculus, 3LL) was over 100 µM and the IC50 ([2]; Homo sapiens, A2780, 72 h) was over 100 µM. It also gave an IC50 (Human colon cancer HT-29; Homo sapiens, HT-29, 72 h) of over 100 µM.

In the case of `CN(C)C(=O)c1nnc(CC2CCCNC2)c2cc(-c3ccc(Cl)cc3)sc12` (stereo not drawn) [XV, 2-(4-chlorophenyl)-4-(3-piperidinemethyl)-thieno[2,3-d]pyridazinyl-7-N,N-dimethyl formamide], the IC50 ([1]; Homo sapiens, BGC-823, 72 h) is reported as 2.25 µM.

In the case of `NC(=O)c1nnc(Cc2ccoc2)c2cc(-c3ccc(F)cc3)sc12` [XXXXXVIII, 2-(4-fluorophenyl)-4-(3-furanmethyl)-thieno[2,3-d]pyridazinyl-7-formamide], the IC50 ([1]; Homo sapiens, BGC-823, 72 h) is reported as 16.4 µM, the IC50 (Mouse lung cancer (3LL); Mus musculus, 3LL) is reported as 21.4 µM and the IC50 ([2]; Homo sapiens, A2780, 72 h) is reported as 13.9 µM. The IC50 (Human colon cancer HT-29; Homo sapiens, HT-29, 72 h) was 21.8 µM.

`NC(=O)c1nnc(CC2CCOC2)c2cc(-c3ccc(F)cc3)sc12` (stereo not drawn) [XXIII, 2-(4-fluorophenyl)-4-(3-tetrahydrofuranmethyl)-thieno[2,3-d]pyridazinyl-7-formamide] showed an IC50 ([1]; Homo sapiens, BGC-823, 72 h) of over 100 µM, an IC50 (Mouse lung cancer (3LL); Mus musculus, 3LL) of over 100 µM and an IC50 ([2]; Homo sapiens, A2780, 72 h) of over 100 µM. For the same molecule, the IC50 (Human colon cancer HT-29; Homo sapiens, HT-29, 72 h) was 5.57 µM.

Molecule `NC(=O)c1nnc(CC2CCCNC2)c2cc(-c3ccc(F)cc3)sc12` (stereo not drawn) [Compound I, 2-(4-fluorophenyl)-4-(3-piperidinemethyl)-thieno[2,3-d]pyridazinyl-7-formamide] has an IC50 ([1]; Homo sapiens, BGC-823, 72 h) of 3.35 µM, an IC50 (Mouse lung cancer (3LL); Mus musculus, 3LL) of 1.4 µM and an IC50 ([2]; Homo sapiens, A2780, 72 h) of 6.4 µM. It also gave an IC50 (Human colon cancer HT-29; Homo sapiens, HT-29, 72 h) of 4.22 µM.

Molecule `CNC(=O)c1nnc(Cc2ccoc2)c2cc(-c3ccc(Cl)cc3)sc12` [XXXXXXIX, 2-(4-chlorophenyl)-4-(3-furanmethyl)-thieno[2,3-d]pyridazinyl-7-N-methyl formamide] has an IC50 ([1]; Homo sapiens, BGC-823, 72 h) of 17 µM, an IC50 (Mouse lung cancer (3LL); Mus musculus, 3LL) of 3.31 µM and an IC50 ([2]; Homo sapiens, A2780, 72 h) of 7.11 µM. It also gave an IC50 (Human colon cancer HT-29; Homo sapiens, HT-29, 72 h) of 9.48 µM.
